Laboratory results: PMC5613011, “Fenugreek Compound (N55) Lowers Plasma Glucose through the Enhancement of Response of Physiological Glucagon-like peptide-1” (Scientific Reports, 2017)

Tests used:
[1] = tested on: GLP-1R; experiment: BRET / real-time intracellular cAMP response assay, GLP-1R; assay type: cell-based
Description: Figure 7 Hypoglycemic action of [Aib8, E22, E30]-GLP-1(7–36) amide was not affected by N55. (a) Sequence alignment of GLP-1(7–36) amide, Ex-4 and mutant peptide. G22 and A30 (purple alphabets) are non-homologous residues between GLP-1(7–36) amide and Ex-4. These residues in GLP-1(7–36) amide were replaced with E (red alphabets), the corresponding residues (blue alphabets) in Ex-4, to generate DPP4-resistant GLP-1 mutant peptide ([Aib8, E22, E30]-GLP-1(7–36) amide). Effect of N55 on cAMP responses to the titration of (b) [Aib8, E22, E30]-GLP-1(7–36) amide and GLP-1′. Values are means ± SEM of triplicate assays from three independent experiments. Dose effect of [Aib8, E22, E30]-GLP-1(7–36) amide on (c) plasma glucose levels and on (d) glucose AUC0–120. Dose effect of N55 on (e) the hypoglycemic response and on (f) glucose AUC0–120 of 16.2 nmol/kg of [Aib8, E22, E30]-GLP-1(7–36) amide. Indicated doses of [Aib8, E22, E30]-GLP-1(7–36) amide and N55 were i.p. administered to group of fasted mice (n = 5) 15 min before the glucose loading (2 g/kg) of the IPGTT. Values are mean ± SEM for groups of five mice. * P < 0.05, ** P < 0.01 and *** P < 0.001 were comparisons of indicated dose of [Aib8, E22, E30]-GLP-1(7–36) amide vs control (c,d). NS, not significant.
The real-time intracellular cAMP assay was performed as previously described.
(§1) Values for each experimental group are presented as mean ± SEM. Statistics were performed using Student’s t-test and one-way analysis of variance (ANOVA). Significance levels shown in the figures are: * P < 0.05, ** P < 0.01 and *** P < 0.001 as well as ^# P < 0.05, ^## P < 0.01 and ^### P < 0.001. A P-value of less than 0.05 was considered significant. Student’s t-test that is used to compare the means of two groups and one-way ANOVA is used to compare the means of more than two groups. Five mice per group were used for the in vivo studies. The in vivo studies were performed at least twice. The in vitro assays were triplicates of three independent experiments.

[2] = tested on: fasted mice; experiment: IPGTT, fasted mice (plasma glucose, glucose AUC0–120); assay type: in vivo, Female C57BL/6 mice
Description: All animal procedures were approved by the Institute of Biomedical Sciences Animal Care and Use Committee (Academia Sinica, Taiwan). The Experimental Animal Committee, Academia Sinica, Taiwan approved all animal experimental procedures. All animals were carefully looked after to ensure that their welfare were well looked after. Additionally, all the experimental procedures and the reagents used in this manuscript have been approved by The Ethic Committee, Academia Sinica. All methods were performed in accordance with the relevant guidelines and regulations by the Institute of Biomedical Sciences Animal Care and Use Committee (Academia Sinica, Taiwan) and The Ethic Committee (Academia Sinica, Taiwan). Female C57BL/6 mice (BioLAS CO, Yi-Lan Breeding Center, Taiwan) aged 8–12 weeks were housed on a 12-h light/12-h dark cycle and provided with food and water ad libitum. The mice were fed with the standard chow (PicoLab Rodent Diet 5053, LabDiet, St. Louis, MO, USA) diet which consisted of 13.2% fat, 24.7% protein, and 62.1% carbohydrates as a source of calories.
All experiments were performed at approximately 1 PM. For the fasted mice, standard chow was removed away at 9 AM on the day of the IPGTT, but were provided water ad libitum for 4 h prior to the beginning of the test. All the administered materials were dissolved in isotonic sodium chloride solution (0.9% sodium chloride) containing 5% ethanol. Vehicle, N55, GLP-1′, [Aib8, E22, E30]-GLP-1(7–36) amide, Ex-4 or Ex-9 alone or in combination were administered by i.p. injection 15 min before D-(+)-glucose (2 g/kg of body weight) i.p. administration. Blood samples were drawn from the tail vein right before glucose loading (time 0) and at 15, 30, 60, 90 and 120 min after glucose administration. Plasma glucose was monitored using a glucometer (Accu-Check Performa, Roche, Basel, Switzerland). Glucose AUC0–120 was calculated during the 120-min time interval from IPGTT results. Glucose AUC0–120 was obtained using the formula AUC0–120 = [15 × (G0 + G15)/2] + [15 × (G15 + G30)/2] + [30 × (G30 + G60)/2] + [30 × (G60 + G90)/2] + [30 × (G90 + G120)/2] where G0, G15, G30, G60, G90 and G120 were blood glucose level at each time point during IPGTT. The decrease in plasma glucose was calculated by subtracting the plasma glucose in the presence of indicated reagent from that in the absence of indicated reagent; ∆ Plasma Glucose (mmol/l) = [plasma glucose at 15 min point obtained in the absence of indicated reagent] − [plasma glucose at 15 min point obtained in the presence of indicated reagent]. The decreased in glucose AUC0–120 was expressed by subtracting the AUC0–120 in the presence of f indicated reagent rom that in the absence of indicated reagent. ∆ AUC0–120 (mmol/l x min) = [AUC0–120 in the absence of indicated reagent] − [AUC0–120 in the presence of indicated reagent].
as §1

[3] = tested on: mice; experiment: Plasma insulin during IPGTT; assay type: in vivo, Female C57BL/6 mice
Description: (§2) All animal procedures were approved by the Institute of Biomedical Sciences Animal Care and Use Committee (Academia Sinica, Taiwan). The Experimental Animal Committee, Academia Sinica, Taiwan approved all animal experimental procedures. All animals were carefully looked after to ensure that their welfare were well looked after. Additionally, all the experimental procedures and the reagents used in this manuscript have been approved by The Ethic Committee, Academia Sinica. […]
(§3) All experiments were performed at approximately 1 PM. […] Plasma glucose was monitored using a glucometer (Accu-Check Performa, Roche, Basel, Switzerland). Glucose AUC0–120 was calculated during the 120-min time interval from IPGTT results. […] The decrease in plasma glucose was calculated by subtracting the plasma glucose in the presence of indicated reagent from that in the absence of indicated reagent; ∆ Plasma Glucose (mmol/l) = [plasma glucose at 15 min point obtained in the absence of indicated reagent] − [plasma glucose at 15 min point obtained in the presence of indicated reagent]. […]
Blood samples were collected from the tail vein before any drug administration and at 15 and 60 min after i.p. glucose loading (time 0). […] Plasma insulin levels were determined by a mouse insulin enzyme-linked immunosorbent assay kit (10–1247–01, Mercodia, Sweden) according to the manufacturer’s protocols. […]

[4] = tested on: GLP-1R; details: cited from earlier work
Description: Firstly, the hypoglycemic effect of N55 during IPGTT of non-fasted mice requires functional GLP-1R signaling. Secondly, although N55 could not affect the plasma glucose in fasted mice whose endogenous GLP-1 are relatively low (Fig. 2a). […] Thirdly, the hypoglycemic effect and potentiation of insulinotropic effect of GLP-1 required the functional s ... || (+ 1 further places)

[5] = tested on: non-fasted mice; experiment: IPGTT, non-fasted mice (plasma glucose, glucose AUC0–120); assay type: in vivo, Female C57BL/6 mice; details: Ex-9 without N55 (1530 without Ex-9), mean, n = 5
Description: as §2, with “Sinica. All methods were performed in accordance with the relevant guidelines and regulations by the Institute of Biomedical Sciences Animal Care and Use Committee (Academia Sinica, Taiwan) and The Ethic Committee (Academia Sinica, Taiwan).” for “Sinica.”
as §3

[6] = Ex-9 with GLP-1′ 5.4 nmol/kg, with or without N55, n = 5

HAibEGTFTSDVSSYLEEQAAKEFIEWLVKGR-NH2 [[Aib8, E22, E30]-GLP-1(7–36) amide, DPP4-resistant GLP-1 mutant peptide]
response to N55 (cAMP) ([1]; titration of peptide with N55, triplicate assays from three independent experiments): failed to respond to N55
potency in stimulating GLP-1R (cAMP) ([1]; titration, compared with GLP-1′, triplicate assays from three independent experiments): displayed comparable potency in stimulating GLP-1R
glucose AUCs during IPGTT ([2]; mutant peptide i.p., n = 5): decreased glucose AUCs
plasma glucose during IPGTT ([2]; mutant peptide i.p., n = 5): dose-dependently lowered the plasma glucose

HAibEGTFTSDVSSYLEGQAAKEFIAWLVKGR-NH2 [GLP-1′, [Aib8]-GLP-1(7–36) amide, DPP4-resistant GLP-1 peptide]
15-min plasma insulin level ([3]; fasted mice, GLP-1′ without N55, 15 min after glucose loading, mouse insulin ELISA, mean, n = 5): 1.44 µg/L
glucose tolerance ([2]; GLP-1′ 0.2 nmol/kg alone i.p., n = 5): did not affect the glucose tolerance at all
contribution to improvement of glucose excursion in presence of Ex-9 ([2]; GLP-1′ 5.4 nmol/kg + Ex-9, without N55): non-detectable level
15-min plasma glucose level ([2]; GLP-1′ 5.4 nmol/kg i.p. without N55, mean, n = 5): 18 mmol/L
glucose excursion (AUC0–120) ([2]; GLP-1′ 5.4 nmol/kg i.p., n = 5): significantly improved
glucose tolerance ([2]; GLP-1′ 5.4 nmol/kg i.p., n = 5): significantly improved the glucose tolerance
contribution of GLP-1′ to improvement of glucose excursion (AUC0–120 with Ex-9 minus without Ex-9) ([2]; GLP-1′ 5.4 nmol/kg without N55): 250 mmol/l x min glucose
glucose AUC0–120 ([2]; GLP-1′ 5.4 nmol/kg without N55, without Ex-9): 1270 mmol/l x min glucose

[E22, E30] GLP-1 (7–36) amide
activation of receptor by point mutant of GLP-1 ([1]; point mutant without Aib8): retained ability to activate the receptor
response of point mutant of GLP-1 to N55 in vitro ([1]; point mutant without Aib8): not responsive to the enhancement of N55 in vitro

exendin-4 [Ex-4]
stimulation of GLP-1R in vitro by Ex-4 [4]: stimulated GLP-1R in vitro
glucose AUC0–120 ([2]; Ex-4 5.4 nmol/kg i.p. (decreased from 1500), mean, n = 5): 780 mmol/l x min glucose
decrease in glucose level, dose dependence ([2]; Ex-4 i.p., n = 5): depended on the dose of Ex-4
glucose AUCs, dose dependence ([2]; Ex-4 i.p., n = 5): decreased as dose of Ex-4 increased
glucose tolerance ([2]; Ex-4 i.p., n = 5): greatly improved the glucose tolerance

exendin-(9–39) [Ex-9]
plasma insulin level with Ex-9 ([3]; 15 and 60 min after glucose loading, Ex-9 treated non-fasted and fasted mice): 0.36 to 0.65 µg/L
effect of Ex-9 on GLP-1′ glucose lowering and N55 enhancement [2, 6]: completely eliminated the glucose lowering effect of GLP-1′ and the enhancement effect of N55
glucose AUC0–120 in all Ex-9 treated mice [2, 6]: ~1520 mmol/l x min glucose
plasma glucose level in Ex-9 treated mice [2, 6]: 22 mmol/L
glucose AUC0–120 [5]: 2070 mmol/l x min glucose
